Assay: xn = mol fraction of the nth substance listed
Conditions: 101 kPa, Liquid; for viscosity: Capillary tube (Ostwald / Ubbelohde) method

CCCCCCCCC [nonane] + COC(C)(C)C
Conditions | mass density [kg/m3] | viscosity [mPa·s]
308.15 K, x2 = 0 | 706.011 | –
308.15 K, x2 = 0.1085 | 706.97 | –
308.15 K, x2 = 0.1722 | 707.6 | –
308.15 K, x2 = 0.3037 | 709.03 | –
308.15 K, x2 = 0.4011 | 710.36 | –
308.15 K, x2 = 0.5008 | 711.93 | –
308.15 K, x2 = 0.6005 | 713.77 | –
308.15 K, x2 = 0.6992 | 715.84 | –
308.15 K, x2 = 0.6998 | – | 0.386
308.15 K, x2 = 0.7975 | – | 0.357
308.15 K, x2 = 0.8005 | 718.35 | –
308.15 K, x2 = 0.8925 | 721.04 | –
313.15 K, x2 = 0 | 702.076 | 0.555
313.15 K, x2 = 0.1006 | – | 0.529
313.15 K, x2 = 0.1085 | 702.96 | –
313.15 K, x2 = 0.1722 | 703.52 | –
313.15 K, x2 = 0.2026 | – | 0.498
313.15 K, x2 = 0.2995 | – | 0.472
313.15 K, x2 = 0.3037 | 704.82 | –
313.15 K, x2 = 0.4011 | 706.05 | –
313.15 K, x2 = 0.4045 | – | 0.446
313.15 K, x2 = 0.5003 | – | 0.421
313.15 K, x2 = 0.5008 | 707.49 | –
313.15 K, x2 = 0.6005 | 709.18 | –
313.15 K, x2 = 0.6035 | – | 0.391
313.15 K, x2 = 0.6992 | 711.09 | –
313.15 K, x2 = 0.6998 | – | 0.367
313.15 K, x2 = 0.8005 | 713.41 | –
313.15 K, x2 = 0.8925 | 715.91 | –
318.15 K, x2 = 0 | 698.124 | 0.522
318.15 K, x2 = 0.1006 | – | 0.498
318.15 K, x2 = 0.1085 | 698.89 | –
318.15 K, x2 = 0.1722 | 699.42 | –
318.15 K, x2 = 0.2026 | – | 0.471
318.15 K, x2 = 0.2995 | – | 0.446
318.15 K, x2 = 0.3037 | 700.6 | –
318.15 K, x2 = 0.4011 | 701.71 | –
318.15 K, x2 = 0.4045 | – | 0.422
318.15 K, x2 = 0.5003 | – | 0.401
318.15 K, x2 = 0.5008 | 703.01 | –
318.15 K, x2 = 0.6005 | 704.56 | –
318.15 K, x2 = 0.6035 | – | 0.372
318.15 K, x2 = 0.6992 | 706.3 | –
318.15 K, x2 = 0.6998 | – | 0.348
318.15 K, x2 = 0.8005 | 708.45 | –
318.15 K, x2 = 0.8925 | 710.72 | –
323.15 K, x2 = 0 | 694.151 | 0.493
323.15 K, x2 = 0.1006 | – | 0.47
323.15 K, x2 = 0.1085 | 694.83 | –
323.15 K, x2 = 0.1722 | 695.3 | –
323.15 K, x2 = 0.2026 | – | 0.446
323.15 K, x2 = 0.2995 | – | 0.423
323.15 K, x2 = 0.3037 | 696.34 | –
323.15 K, x2 = 0.4011 | 697.34 | –
323.15 K, x2 = 0.4045 | – | 0.402
323.15 K, x2 = 0.5003 | – | 0.382
323.15 K, x2 = 0.5008 | 698.51 | –
323.15 K, x2 = 0.6005 | 699.89 | –
323.15 K, x2 = 0.6035 | – | 0.354
323.15 K, x2 = 0.6992 | 701.46 | –
323.15 K, x2 = 0.8005 | 703.35 | –
323.15 K, x2 = 0.8925 | 705.48 | –
328.15 K, x2 = 0 | 690.165 | 0.466
328.15 K, x2 = 0.1006 | – | 0.445
328.15 K, x2 = 0.1085 | 690.74 | –
328.15 K, x2 = 0.1722 | 691.16 | –
328.15 K, x2 = 0.2026 | – | 0.424
328.15 K, x2 = 0.2995 | – | 0.402
328.15 K, x2 = 0.3037 | 692.06 | –
328.15 K, x2 = 0.4011 | 692.94 | –
328.15 K, x2 = 0.4045 | – | 0.383
328.15 K, x2 = 0.5003 | – | 0.364
328.15 K, x2 = 0.5008 | 693.97 | –
328.15 K, x2 = 0.6005 | 695.19 | –
328.15 K, x2 = 0.6992 | 696.59 | –
328.15 K, x2 = 0.8005 | 698.27 | –
333.15 K, x2 = 0 | 686.154 | 0.442
333.15 K, x2 = 0.1006 | – | 0.423
333.15 K, x2 = 0.1085 | 686.64 | –
333.15 K, x2 = 0.1722 | 686.99 | –
333.15 K, x2 = 0.2026 | – | 0.404
333.15 K, x2 = 0.2995 | – | 0.383
333.15 K, x2 = 0.3037 | 687.76 | –
333.15 K, x2 = 0.4011 | 688.5 | –
333.15 K, x2 = 0.4045 | – | 0.365
333.15 K, x2 = 0.5003 | – | 0.347
333.15 K, x2 = 0.5008 | 689.39 | –
333.15 K, x2 = 0.6005 | 690.45 | –
333.15 K, x2 = 0.6992 | 691.66 | –
333.15 K, x2 = 0.8005 | 693.14 | –
338.15 K, x2 = 0 | 682.116 | 0.42
338.15 K, x2 = 0.1006 | – | 0.402
338.15 K, x2 = 0.1085 | 682.52 | –
338.15 K, x2 = 0.1722 | 682.79 | –
338.15 K, x2 = 0.2026 | – | 0.386
338.15 K, x2 = 0.2995 | – | 0.366
338.15 K, x2 = 0.3037 | 683.42 | –
338.15 K, x2 = 0.4011 | 684.02 | –
338.15 K, x2 = 0.4045 | – | 0.348
338.15 K, x2 = 0.5008 | 684.76 | –
338.15 K, x2 = 0.6005 | 685.66 | –
338.15 K, x2 = 0.6992 | 686.68 | –
338.15 K, x2 = 0.8005 | 687.95 | –
343.15 K, x2 = 0 | 678.06 | 0.399
343.15 K, x2 = 0.1006 | – | 0.383
343.15 K, x2 = 0.1085 | 678.37 | –
343.15 K, x2 = 0.1722 | 678.57 | –
343.15 K, x2 = 0.2026 | – | 0.368
343.15 K, x2 = 0.2995 | – | 0.351
343.15 K, x2 = 0.3037 | 679.05 | –
343.15 K, x2 = 0.4011 | 679.52 | –
343.15 K, x2 = 0.5008 | 680.11 | –
343.15 K, x2 = 0.6005 | 680.83 | –
348.15 K, x2 = 0 | 673.979 | 0.38
348.15 K, x2 = 0.1006 | – | 0.366
348.15 K, x2 = 0.1085 | 674.19 | –
348.15 K, x2 = 0.1722 | 674.31 | –
348.15 K, x2 = 0.2026 | – | 0.352
348.15 K, x2 = 0.3037 | 674.64 | –
348.15 K, x2 = 0.4011 | 674.98 | –
353.15 K, x2 = 0 | 669.872 | 0.362
353.15 K, x2 = 0.1006 | – | 0.35
353.15 K, x2 = 0.1085 | 669.95 | –
353.15 K, x2 = 0.1722 | 670.02 | –
353.15 K, x2 = 0.2026 | – | 0.338
353.15 K, x2 = 0.3037 | 670.19 | –
353.15 K, x2 = 0.4011 | 670.38 | –
358.15 K, x2 = 0 | 665.73 | 0.346
358.15 K, x2 = 0.1006 | – | 0.335
358.15 K, x2 = 0.1085 | 665.71 | –
358.15 K, x2 = 0.1722 | 665.7 | –
358.15 K, x2 = 0.3037 | 665.7 | –
358.15 K, x2 = 0.4011 | 665.75 | –
363.15 K, x2 = 0 | 661.557 | –
363.16 K, x2 = 0.1085 | 661.43 | –
363.16 K, x2 = 0.1722 | 661.33 | –
363.16 K, x2 = 0.3037 | 661.17 | –
